Measurements taken from patent US4783443A, “Amino acyl cephalosporin derivatives” (The University of Chicago, priority 1986, dated 1988).
≈ marks a conversion by molar mass, not a printed value. Structures can show the parent of a compound that is named as a salt. Where two headings read alike, the source gives them in different places.

Tests used:
Enterobacter areogenes = experiment: Minimum inhibitory concentration (MIC); type: cell-based; details: Gram-negative
Source text: (§1) The antibacterial effects of compounds of the invention have been assessed by determination of the minimum inhibitory concentration (M.I.C.) value against a variety of Gram-negative and -positive bacteria. The microbial susceptibility data for four compounds, together with those for the antibacterial dipeptide beta-Cl-LAla-beta-Cl-LAla, are given in Table I.
(§2) in uM to facilitate a meaningful comparison of the approximate MICs among
(§3) the tested compounds; an appreciation of the MIC values in ug/mL can be
(§4) obtained by multiplying each value (μM) by 0.55

Enterobacter cloacae = experiment: Minimum inhibitory concentration (MIC); type: cell-based; details: Gram-negative, read-out: Minimum Inhibitory Concentration
Source text: as §1, §2, §3, §4

Escherichia coli CR = experiment: Minimum inhibitory concentration (MIC); type: cell-based; details: Escherichia coli CR; read-out: Minimum Inhibitory Concentration
Source text: as §1, §2, §3, §4

Escherichia coli DB4548 = experiment: Minimum inhibitory concentration (MIC); type: cell-based
Source text: as §1, §2, §3, §4

Escherichia coli JSR-O = experiment: Minimum inhibitory concentration (MIC); type: cell-based; details: Escherichia coli JSR-O; parental strain; read-out: Minimum Inhibitory Concentration
Source text: as §1, §2, §3, §4

[1] = tested on: Hemophilus influenzae 236; experiment: Minimum inhibitory concentration (MIC); type: cell-based; details: Haemophilus influenzae
Source text: as §1, §2, §3, §4

[2] = tested on: Hemophilus influenzae 238; experiment: Minimum inhibitory concentration (MIC); type: cell-based; details: Haemophilus influenzae
Source text: as §1, §2, §3, §4

[3] = tested on: Hemophilus influenzae 487; experiment: Minimum inhibitory concentration (MIC); type: cell-based; details: Haemophilus influenzae, possesses a betalactamase
Source text: as §1, §2, §3, §4

Klebsiella pneumoniae = experiment: Minimum inhibitory concentration (MIC); type: cell-based; details: Gram-negative
Source text: as §1, §2, §3, §4

Morganella morganii = experiment: Minimum inhibitory concentration (MIC); type: cell-based; details: Gram-negative
Source text: as §1, §2, §3, §4

Psuedomonas aeruginosa = experiment: Minimum inhibitory concentration (MIC); type: cell-based; details: Gram-negative
Source text: as §1, §2, §3, §4

[4] = tested on: Salmonella typhimurium LT 2; experiment: Minimum inhibitory concentration (MIC); type: cell-based; details: Salmonella enterica, Gram-negative
Source text: as §1, §2, §3, §4

Salmonella typhimurium = experiment: Minimum inhibitory concentration (MIC); type: cell-based; details: Salmonella enterica, Gram-negative
Source text: as §1, §2, §3, §4

Serratia marcescens = experiment: Minimum inhibitory concentration (MIC); type: cell-based; details: Gram-negative
Source text: as §1, §2, §3, §4

Shigella flexneri = experiment: Minimum inhibitory concentration (MIC); type: cell-based; details: Gram-negative
Source text: as §1, §2, §3, §4

[5] = tested on: Staphylococcus aureus H-2690-8^R; experiment: Minimum inhibitory concentration (MIC); type: cell-based; details: possesses a betalactamase
Source text: as §1, §2, §3, §4

[6] = tested on: Staphylococcus aureus PSL-13 Pen^R; experiment: Minimum inhibitory concentration (MIC); type: cell-based; details: possesses a betalactamase
Source text: as §1, §2, §3, §4

[7] = tested on: Staphylococcus aureus PSL-14 Pen^R; experiment: Minimum inhibitory concentration (MIC); type: cell-based; details: possesses a betalactamase
Source text: as §1, §2, §3, §4

[8] = tested on: Staphylococcus aureus PSL-15 Pen^R; experiment: Minimum inhibitory concentration (MIC); type: cell-based; details: possesses a betalactamase
Source text: as §1, §2, §3, §4

[9] = tested on: Staphylococcus aureus PSL-16 Pen^R; experiment: Minimum inhibitory concentration (MIC); type: cell-based; details: possesses a betalactamase
Source text: as §1, §2, §3, §4

[10] = tested on: Staphylococcus aureus T-4624-8 Pen^R; experiment: Minimum inhibitory concentration (MIC); type: cell-based; details: possesses a betalactamase
Source text: as §1, §2, §3, §4

Streptococcus agalactiae = experiment: Minimum inhibitory concentration (MIC); type: cell-based; details: Gram positive
Source text: as §1, §2, §3, §4

Streptococcus faecalis = experiment: Minimum inhibitory concentration (MIC); type: cell-based; details: Enterococcus faecalis; Streptococcus faecalis; Gram positive; read-out: Minimum Inhibitory Concentration
Source text: as §1, §2, §3, §4

[11] = tested on: Escherichia coli JSR-O Cl-Pep^R; experiment: Minimum inhibitory concentration (MIC); type: cell-based; details: Escherichia coli, read-out: Minimum Inhibitory Concentration
Source text: as §1, §2, §3, §4
^(g) This ia an E. coli JSRO strain selected for resistance to the
A comparison of the data for E. coli strains JSR-O and JSR-O Cl-Pep^R is of special interest. E. coli Cl-Pep^R is an E. coli JSR-O mutant which was selected for resistance to the dipeptide (f). […] Note that the MIC values for (d) and (e) against E. coli Cl-Pep^R (100 and 50 μM, respectively) are quite similar.

[12] = tested on: Escherichia coli JSR-O pBR322; experiment: Minimum inhibitory concentration (MIC); type: cell-based; details: read-out: Minimum Inhibitory Concentration
Source text: as §1, §2, §3, §4
^(i) Contains the plasmid gene encoding the TEM betalactamase.

Corynebacterium JKM-4754 = experiment: Minimum inhibitory concentration (MIC); type: cell-based
Source text: as §1, §2, §3, §4
(§5) ^(j) Resistant to cephalothin (MIC >200 uM);

Corynebacterium JKR-2285 = experiment: Minimum inhibitory concentration (MIC); type: cell-based
Source text: as §1, §2, §3, §4, §5

Escherichia coli Ceph^R = experiment: Minimum inhibitory concentration (MIC); type: cell-based; details: Escherichia coli, read-out: Minimum Inhibitory Concentration
Source text: as §1, §2, §3, §4, §5

[13] = tested on: Staphylococcus epidermidis (P^R M^R); experiment: Minimum inhibitory concentration (MIC); type: cell-based; details: no strain number
Source text: as §1, §2, §3, §4
(§6) ^(k) P and M refer to penicillin and methicillin, respectively.

[14] = tested on: Staphylococcus epidermidis 1239(P^R M^R); experiment: Minimum inhibitory concentration (MIC); type: cell-based
Source text: as §1, §2, §3, §4, §6

[15] = tested on: Staphylococcus epidermidis MO1554(P^S M^S); experiment: Minimum inhibitory concentration (MIC); type: cell-based; details: Staphylococcus epidermidis MO1554 (penicillin- and methicillin-sensitive, P^S M^S)
Source text: as §1, §2, §3, §4, §6

[16] = tested on: Gram-negative and -positive bacteria; experiment: Antibacterial activity, general trends of the MIC panel of Table I; type: cell-based; details: E. cloacae, all of the susceptible E. coli strains, H. influenzae 487, all of the S. aureus strains
Source text: as §1

[17] = target: E. coli TEM beta-lactamase (Escherichia coli, UniProt P62593); experiment: Kinetics of enzymatic turnover by E. coli TEM beta-lactamase; type: biochemical
Protocol: Escherichi coli TEM beta-lactamase was purchased from Applied Microbiology and Research, Porton Down, U.K. L-Alanyl-L-alanine was purchase from Sigma; N-BOC-LAla-LAla and N-BOC-beta-Cl-LAla-beta-Cl-LAla were prepared as described previously. Cheung et al supra. All other reagents were of the best grade commercially available.
Kinetic Constants for the Reactions of E. coli TEM beta-Lactamase with Cephalothin and the Cephalosporin Peptide Esters 7 and 17.

[18] = JKM4754, Corynebacterium JKM-4754, resistant to cephalothin, read-out: Minimum Inhibitory Concentration
[19] = JKR2285, Corynebacterium JKR-2285, resistant to cephalothin, read-out: Minimum Inhibitory Concentration

Sequence of E. coli TEM beta-lactamase (P62593 24-286 limits assumed): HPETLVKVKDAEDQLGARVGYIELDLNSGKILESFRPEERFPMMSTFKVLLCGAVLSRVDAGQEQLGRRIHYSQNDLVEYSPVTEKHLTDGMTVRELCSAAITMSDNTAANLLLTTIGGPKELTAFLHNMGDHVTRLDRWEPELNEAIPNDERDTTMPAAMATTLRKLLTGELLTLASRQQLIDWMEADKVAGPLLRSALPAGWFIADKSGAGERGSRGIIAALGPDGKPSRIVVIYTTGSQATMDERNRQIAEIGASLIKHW

| Compound | MIC (Enterobacter areogenes) [µM] | MIC (Enterobacter cloacae) [µM] | MIC (Escherichia coli CR) [µM] | MIC (Escherichia coli DB4548) [µM] | MIC (Escherichia coli JSR-O) [µM] | MIC [1] [µM] | MIC [2] [µM] | MIC [3] [µM] | MIC (Klebsiella pneumoniae) [µM] | MIC (Morganella morganii) [µM] | MIC (Psuedomonas aeruginosa) [µM] | MIC [4] [µM] | MIC (Salmonella typhimurium) [µM] | MIC (Serratia marcescens) [µM] | MIC (Shigella flexneri) [µM] | MIC [5] [µM] | MIC [6] [µM] | MIC [7] [µM] | MIC [8] [µM] | MIC (Escherichia coli Ceph^R) [µM] | other results |
| --- | --- | --- | --- | --- | --- | --- | --- | --- | --- | --- | --- | --- | --- | --- | --- | --- | --- | --- | --- | --- | --- |
| C[C@H](N)C(=O)OCC1=C(C(=O)O)N2C(=O)[C@@H](NC(=O)Cc3cccs3)[C@H]2SC1 [(b), 7-beta-(2-thienylacetamido)-3-(L-alanyloxymethyl)-3-cephem-4-carboxylic acid] | > 200 | > 200 | 100 (≈ 42.5 µg/mL) | 50 (≈ 21.3 µg/mL) | 100 (≈ 42.5 µg/mL) | 50 (≈ 21.3 µg/mL) | ≤ 0.78 | 50 (≈ 21.3 µg/mL) | > 200 | 100 (≈ 42.5 µg/mL) | > 200 | 50 (≈ 21.3 µg/mL) | > 200 | > 200 | 100 (≈ 42.5 µg/mL) | 100 (≈ 42.5 µg/mL) | 200 (≈ 85.1 µg/mL) | > 200 | 100 (≈ 42.5 µg/mL) | > 200 | MIC [9]: > 200 µM; MIC [10]: 100 µM (≈ 42.5 µg/mL); MIC (Streptococcus agalactiae): ≤ 0.78 µM; MIC (Streptococcus faecalis): > 100 µM; MIC [11]: > 200 µM; MIC [12]: 50 µM (≈ 21.3 µg/mL); MIC (Corynebacterium JKM-4754; [18]): > 200 µM; MIC (Corynebacterium JKR-2285; [19]): > 200 µM; MIC [13]: 1.56 µM (≈ 0.664 µg/mL); MIC [14]: ≤ 0.78 µM; MIC [15]: ≤ 0.78 µM; sensitivity observed [16]: no activity was seen |
| N[C@@H](CCl)C(=O)OCC1=C(C(=O)O)N2C(=O)[C@@H](NC(=O)Cc3cccs3)[C@H]2SC1 [(c), 7-beta-(2-thienylacetamido)-3(beta-chloro-L-alanyloxymethyl)-3-cephem-4-carboxylic acid] | > 200 | 100 (≈ 46 µg/mL) | 50 (≈ 23 µg/mL) | 50 (≈ 23 µg/mL) | 100 (≈ 46 µg/mL) | 25 (≈ 11.5 µg/mL) | ≤ 0.78 | 25 (≈ 11.5 µg/mL) | > 200 | 100 (≈ 46 µg/mL) | > 200 | 25 (≈ 11.5 µg/mL) | 100 (≈ 46 µg/mL) | > 200 | 100 (≈ 46 µg/mL) | 6.25 (≈ 2.87 µg/mL) | 25 (≈ 11.5 µg/mL) | 25 (≈ 11.5 µg/mL) | 12.5 (≈ 5.75 µg/mL) | > 200 | MIC [9]: 255 µM (≈ 117 µg/mL); MIC [10]: 6.25 µM (≈ 2.87 µg/mL); MIC (Streptococcus agalactiae): ≤ 0.78 µM; MIC (Streptococcus faecalis): 200 µM (≈ 92 µg/mL); MIC [11]: > 200 µM; MIC (Corynebacterium JKM-4754; [18]): > 200 µM; MIC (Corynebacterium JKR-2285; [19]): > 200 µM; MIC [13]: ≤ 0.78 µM; MIC [14]: ≤ 0.78 µM; MIC [15]: ≤ 0.78 µM; sensitivity observed [16]: sensitivity was observed |
| C[C@H](N)C(=O)N[C@@H](C)C(=O)OCC1=C(C(=O)O)N2C(=O)[C@@H](NC(=O)Cc3cccs3)[C@H]2SC1 [(d), Sodium 7-beta-(2-thienylacetamido)-3-(L-alanyl-L-alanyloxymethyl)-3-cephem-4-carboxylate, toluenesulfonic acid salt] | > 200 | 200 | 200 | 50 | 200 | 50 | ≤ 0.78 | 12.5 | > 200 | 100 | > 200 | 25 | 100 | > 200 | 100 | 25 | > 200 | > 200 | > 200 | > 200 | MIC [9]: 200 µM; MIC [10]: 25 µM; MIC (Streptococcus agalactiae): ≤ 0.78 µM; MIC (Streptococcus faecalis): 50 µM; MIC [11]: 100 µM; MIC [12]: > 200 µM; MIC (Corynebacterium JKM-4754; [18]): > 200 µM; MIC (Corynebacterium JKR-2285; [19]): > 200 µM; MIC [13]: ≤ 0.78 µM; MIC [14]: ≤ 0.78 µM; MIC [15]: ≤ 0.78 µM; sensitivity observed [16]: no activity was seen; Vmax compared with cephalothin [17]: substantially greater than that obtained for cephalothin; substrate for the lactamase [17]: found to be substrates for the E. coli TEM beta-lactamase; binding to the lactamase (KM approximating KS) ([17]; effect of the C10-dipeptidyl substituent): do not compromise the binding of the cephalosporin nucleus to the lactamase |
| CC(=O)OCC1=C(C(=O)O)N2C(=O)[C@@H](NC(=O)Cc3cccs3)[C@H]2SC1 [cephalothin, reference compound] | – | – | – | – | – | – | – | – | – | – | – | – | – | – | – | – | – | – | – | > 200 | MIC (Corynebacterium JKM-4754; Corynebacterium, JKM4754, read-out: Minimum Inhibitory Concentration): > 200 µM; MIC (Corynebacterium JKR-2285; Corynebacterium, JKR2285, read-out: Minimum Inhibitory Concentration): > 200 µM |
